Source: US20240093150A1, “IMPROVED T-CELLS FOR CANCER THERAPY USING AMINO ACID STARVATION PATHWAYS” (UNIVERSITY HEALTH NETWORK, priority 2021, published 2024)

Columns and labels:
[1] = system: P14 CD8+ T cells; assay: Flow cytometry of activated mouse CD8+ T cells treated with halofuginone (cytokines, surface markers, phosphoflow, autophagosome staining); format: cell-based; conditions: for IFN-γ in halo-treated cells: inhibitor concurrent with Halofuginone (3-MA 2.5 mM; Oligomycin 1 uM)
[2] = system: CD8+ T cells; assay: Seahorse and ATP quantification in halo-treated mouse CD8+ T cells; format: cell-based; conditions: for enhanced OXPHOS (basal OCR) in halo-treated cells: inhibitor added concurrent with Halofuginone (3-MA 2.5 mM)
[3] = system: CD8+ T cells; assay: Ribo-Seq / RNA-seq gene expression profiling of halo-treated CD8+ T cells; format: cell-based, mouse; conditions: halo vs vehicle
[4] = system: human CD8+ T cells; assay: Human CD8+ T cells activated in the presence of halofuginone (Seahorse, flow cytometry, DMF5 TCR transduction); format: cell-based
Description: Peripheral blood mononuclear cells were obtained from healthy donors following institutional review board approval. Written informed consent was obtained from all donors who provided the samples. PBMCs were magnetically sorted for naïve CD8+ T cells (Miltenyi Biotec) and activated with CD3/CD28 Dynabeads (Invitrogen) at 1:1 ratio in complete IMDM for 5 days in the presence of Halo (12.5 ng/mL) or vehicle control. For DMF5 TCR transduction, purified naïve CD8+ T cells were stimulated with CD3/CD28 Dynabeads at 1:1 ratio in complete IMDM media and 100 IU/ml recombinant human IL-2. Two days after stimulation, T cells were infection with PG13-derived virus encoding DMF5 TCR and a truncated NGFR tag, separated by 2A sequences. Halofuginone (12.5 ng/mL) or vehicle control was added on days 0 and 2. Phenotype was analyzed on day 5.

[5] = system: CD8+ T cells; assay: Targeted mass spectrometry metabolic profile of halo-treated cells; format: cell-based, mouse; conditions: halo vs vehicle
Description: Seahorse was performed as previously described (Saibil et al., 2019). ATP quantification was performed using a commercial kit (Sigma) according to the recommended protocol. For metabolic profiling of Halo treated cells, mass spectrometry was performed on metabolites extracted from cell pellets. Briefly, cell pellets were washed and snap frozen in 1 ml 80% methanol. Samples were probe sonicated for 5 seconds, power level 3 (Fisher Scientific Model 100 Sonicator). 5 ul of internal standard (Isotopically labeled amino acids, 1.25 mM, PN MSK-A2-1.2, Cambridge Isotope Laboratories) was added to a 100 ul aliquot of supernatant. 10 ul of this solution was diluted in 990 ul of buffer containing 95% acetonitrile, 5% 20 mM ammonium carbonate (pH 9.8). Quality control samples (QCs) were prepared by pooling 100 μl of each sample. All samples including QCs, where then analyzed by selected reaction monitoring (SRM) using a Waters XBridge Amide 1.0×50 mm, 3.5 μm column and a 10 mM ammonium carbonate (pH 10) acetonitrile buffer system coupled with a Sciex Qtrap 5500 triple quadrupole linear ion trap tandem mass spectrometer. The data acquisition included 317 transitions. Data were captured using Analyst, version 1.6.2 software (Sciex); peak integration was performed using Skyline, version 4.1 (Pino et al., 2020). […]

[6] = Halo 50 ng/mL last 48 hours, vs vehicle

Cn1cnc(N)c2ncnc1-2 [3MA]
4-1BB or granzyme B expression in halo-treated cells ([1]; cultured in the presence of 3MA 2.5 mM): no difference | IFN-γ in halo-treated cells [1]: marked reduction | OXPHOS in vehicle-treated cells ([2]; 3-MA 2.5 mM): no effect | enhanced OXPHOS (basal OCR) in halo-treated cells [2]: entirely abrogated

NC1(C(=O)O)CC2CCC1C2 (stereo not shown) [BCH]
halo-induced p-mTOR increase in the presence of inhibitor ([1]; halo-treated cells plus BCH): reversed | expression of 4-1BB, Granzyme B and IFN-γ in halo-treated cells ([1]; inhibitor added concurrent with Halofuginone (Rapamycin 20 nM)): inhibition of expression | enhanced OXPHOS (basal OCR) in halo-treated cells [2]: did not affect

CCOC(=O)[C@@]1(CCCCCCOc2ccc(Cl)cc2)CO1 [etomoxir]
effect on OCR in halo-treated cells ([2]; Etomoxir 4 μm injected in Seahorse): minimal effects

O=C(CC1NCCCC1O)Cn1cnc2cc(Br)c(Cl)cc2c1=O (stereo not shown) [halofuginone]
4-1BB expression (RNA) [3]: up-regulated | Trm-associated genes, transcriptionally or translationally [3]: very few of the Trm-associated genes were up-regulated | electron transport chain (ETC) complex genes [3]: increased both transcription and translation of all five complexes | genes associated with glycolysis, TCA cycle, fatty acid oxidation [3]: Increased enrichment of genes associated with glycolysis and the TCA cycle, but not fatty acid oxidation | ribosomal-associated Bhlhe40 transcripts [3]: marked increase | CD69 gene expression ([3]; among Trm-associated genes): one of the most upregulated genes | expression of costimulatory and co-inhibitory molecules (transcriptional, translational and protein level) ([3]; panel of markers other than 4-1BB): not enhanced | expression of 4-1BB, Granzyme B and CD98 in TCR+ T cells ([4]; DMF5 TCR transduced, Halofuginone 12.5 ng/mL, day 5, majority of patients): increased expression | OXPHOS ([4]; Halo 12.5 ng/mL, 5 days): enhanced | expression of 4-1BB and CD98 ([4]; Halo 12.5 ng/mL, 5 days): increasing | transduction efficiency of the DMF5 TCR ([4]; Halofuginone 12.5 ng/mL added on days 0 and 2): did not inhibit | IFN-γ production ([1]; Halo 50 ng/mL for the last 48 hours of IL-2 expansion, vs vehicle): increased IFN-γ production | CD98 expression [1, 6]: enhanced | TNF-α and IL-2 production [1, 6]: to a lesser extent, increased | granzyme B expression [1, 6]: significant increase | polyfunctionality (co-expression of IFN-γ, TNF-α, IL-2) [1, 6]: increased polyfunctionality | surface expression of 4-1BB ([1]; flow cytometry, halo vs vehicle): increased percentage of cells expressing 4-1BB as well as a higher level of expression on a per cell basis | autophagy (fluorescent staining of autophagosomes) ([1]; halo-treated cells vs vehicle): increased evidence of autophagy | p-mTOR ([1]; halo-treated cells vs vehicle): increase in p-mTOR | surface markers of Tcm lineage (CD62L, CD44, CD127, CD25) ([1]; halo-treated cells, same as vehicle treated cells): CD62^Lo, CD44^Hi CD127^Lo and CD25^Hi | CD69+ CD103+ double-positive cells ([1]; halo-treated, unlike vehicle-treated control cells): induced a population of CD69^+ CD103^+ double-positive cells | levels of amino acids [5]: primarily up-regulated | ATP levels [2, 6]: increase | OCR (oxygen consumption rate) [2, 6]: increase | OCR:ECAR ratio [2, 6]: increase

CC[C@H]1/C=C/C=C/C[C@@H](C)[C@H](O)[C@@](C)(O)C(=O)[C@@H](C)[C@H](O)[C@@H](C)C(=O)[C@@H](C)[C@H](O)[C@@H](C)/C=C/C(=O)O[C@@H]2[C@H](C)[C@H](CC1)O[C@]1(CC[C@H](C)[C@H](C[C@@H](C)O)O1)[C@H]2C [oligomycin]
IFN-γ in halo-treated cells [1]: marked reduction
